Data: US5744339A, “Thiomethylene group-containing aldehyde cysteine and serine protease inhibitors” (Cephalon, Inc., priority 1996, dated 1998)

Key:
Type in all cases: biochemical
Calpain I = target: T1, Calpain I (Homo sapiens, UniProt P07384); assay: Inhibition of calpain I (cysteine protease) activity; details: 0.2 mM Succ-Leu-Tyr-MNA, pH 7.5, CaCl2 start
T1 construct: made in house
T1 sequence (P07384 1-714): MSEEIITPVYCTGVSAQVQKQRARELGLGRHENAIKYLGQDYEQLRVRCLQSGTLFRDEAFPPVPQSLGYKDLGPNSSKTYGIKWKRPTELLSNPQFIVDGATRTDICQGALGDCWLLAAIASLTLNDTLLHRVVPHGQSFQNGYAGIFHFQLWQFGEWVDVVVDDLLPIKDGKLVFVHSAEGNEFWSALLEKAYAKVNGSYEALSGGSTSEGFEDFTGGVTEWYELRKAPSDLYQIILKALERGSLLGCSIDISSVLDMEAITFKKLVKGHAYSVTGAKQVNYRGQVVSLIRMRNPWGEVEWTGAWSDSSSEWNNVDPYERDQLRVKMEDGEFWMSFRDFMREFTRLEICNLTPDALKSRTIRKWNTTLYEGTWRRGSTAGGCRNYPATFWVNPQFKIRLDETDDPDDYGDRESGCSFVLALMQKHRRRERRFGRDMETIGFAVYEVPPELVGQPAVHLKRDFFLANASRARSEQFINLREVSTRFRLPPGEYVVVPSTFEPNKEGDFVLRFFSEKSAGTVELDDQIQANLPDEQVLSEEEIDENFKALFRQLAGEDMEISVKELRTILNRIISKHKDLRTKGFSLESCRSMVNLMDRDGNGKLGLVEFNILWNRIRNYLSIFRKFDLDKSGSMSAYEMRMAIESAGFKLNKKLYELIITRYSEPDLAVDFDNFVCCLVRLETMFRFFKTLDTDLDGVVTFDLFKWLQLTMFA
T1 sequence (P04632 1-268 partner): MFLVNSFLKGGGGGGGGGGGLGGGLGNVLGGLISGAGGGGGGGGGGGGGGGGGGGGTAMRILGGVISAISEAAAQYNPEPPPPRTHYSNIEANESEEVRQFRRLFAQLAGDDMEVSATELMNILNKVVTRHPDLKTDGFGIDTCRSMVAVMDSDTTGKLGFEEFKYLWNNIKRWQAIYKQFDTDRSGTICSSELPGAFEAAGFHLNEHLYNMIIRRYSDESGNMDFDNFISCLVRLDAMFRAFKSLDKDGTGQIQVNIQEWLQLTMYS
Procedure: (§1) To evaluate inhibitory activity, stock solutions (40 times concentrated) of each compound to be tested were prepared in 100% anhydrous DMSO and 5 μL of each inhibitor preparation were aliquoted into each of three wells of a 96-well plate. Calpain I, prepared by a modification of the method of W. J. Lee et al. (Biochem. […] To start the reaction, 20 μL of 50 mM CaCl2 in assay buffer was added to all wells of the plate, excepting three, which were used as background signal baseline controls. Substrate hydrolysis was monitored every 5 minutes for a total of 30 minutes using a Fluoroskan II fluorescence plate reader. Substrate hydrolysis in the absence of inhibitor was linear for up to 15 minutes. Inhibition of calpain I activity was calculated as the percent decrease in the rate of substrate hydrolysis in the presence of inhibitor relative to the rate in its absence. Comparison between the inhibited and control rates was made within the linear range for substrate hydrolysis. For screening, compounds were tested at 10 μm. Compounds having 50% inhibition at 10 μM were considered active. […] The results were plotted as % inhibition versus log inhibitor concentration and the IC50 was calculated from linear regression of the data.

cathepsin B = target: T2, cathepsin B (Homo sapiens, UniProt P07858); assay: Inhibition of cathepsin B (cysteine protease) activity; details: 0.1 mM Cbz-Phe-Arg-AMC, pH 6.0; read-out: Cat B IC50
T2 construct: purchased Calbiochem 219364
Procedure: as §1, with “data. […] Additionally, the order of reagents added to the plate was altered because both enzymes are constitutively active. Following inhibitor addition to the plates, appropriate 2× concentrated stock dilutions of the enzyme preparations were made in assay buffer and 10 ul added to each well. The assay was initiated by addition of 100 ul of 2× concentrated stock dilution of substrate in assay buffer. Substrate hydrolysis was monitored using a Fluoroskan II (ex=390 nm; em=460 nm).” for “data.”

cathepsin L = target: T3, cathepsin L (Homo sapiens, UniProt P07711); assay: Inhibition of cathepsin L (cysteine protease) activity; details: 0.006 mM Cbz-Phe-Arg-AMC, pH 6.0; read-out: Cat L IC50
T3 construct: purchased Calbiochem 219402
Procedure: (§2) To evaluate inhibitory activity, stock solutions (40 times concentrated) of each compound to be tested were prepared in 100% anhydrous DMSO and 5 μL of each inhibitor preparation were aliquoted into each of three wells of a 96-well plate. Calpain I, prepared by a modification of the method of W. J. Lee et al. (Biochem. Internatl. 22: 163-171 (1990)), was diluted into assay buffer (i.e., 50 mM Tris, 50 mM NaCl, 1 mM EDTA, 1 mM EGTA, and 5 mM β-mercaptoethanol, pH 7.5 including 0.2 mM Succ-Leu-Tyr-MNA) and 175 μL aliquoted into the same wells containing the independent inhibitor stocks, as well as to positive control wells containing 5 μL DMSO, but no compound. To start the reaction, 20 μL of 50 mM CaCl2 in assay buffer was added to all wells of the plate, excepting three, which were used as background signal baseline controls. Substrate hydrolysis was monitored every 5 minutes for a total of 30 minutes using a Fluoroskan II fluorescence plate reader. Substrate hydrolysis in the absence of inhibitor was linear for up to 15 minutes.
(§3) Inhibition of calpain I activity was calculated as the percent decrease in the rate of substrate hydrolysis in the presence of inhibitor relative to the rate in its absence. Comparison between the inhibited and control rates was made within the linear range for substrate hydrolysis. For screening, compounds were tested at 10 μm. Compounds having 50% inhibition at 10 μM were considered active. The IC50s of inhibitors (i.e., the concentration yielding 50% inhibition) were determined from the percent decrease in the rates of substrate hydrolysis in the presence of five to seven different concentrations of the test compound. The results were plotted as % inhibition versus log inhibitor concentration and the IC50 was calculated from linear regression of the data.
Additionally, the order of reagents added to the plate was altered because both enzymes are constitutively active. Following inhibitor addition to the plates, appropriate 2× concentrated stock dilutions of the enzyme preparations were made in assay buffer and 10 ul added to each well.
The assay was initiated by addition of 100 ul of 2× concentrated stock dilution of substrate in assay buffer. Substrate hydrolysis was monitored using a Fluoroskan II (ex=390 nm; em=460 nm).

thrombin = target: T4, thrombin (Homo sapiens, UniProt P00734); assay: Inhibition of thrombin (serine protease) activity; details: 10 μM inhibitor; 25 μM Bz-Phe-Val-Arg-AMC, pH 7.5; read-out: Thrombin % I @ 10 μM
T4 construct: purchased Sigma Chem. Co. T-7009
Procedure: (§4) Additionally,because α-chymotrypsin is not a calcium sensitive enzyme and is constitutively active, following addition of inhibitor stocks to the 96 well plates, 100 μl of a 2-fold concentrated stock of enzyme in dilution buffer was first added and the reaction started by addition of 10 μl of a 2-fold concentrated stock of substrate in assay buffer. Substrate hydrolysis was monitored every 5 minutes up to 30 minutes using a Fluoroskan II ([…]). The result is expressed as inhibition of α-chymotrypsin at 10 μM.
Inhibition of thrombin (Sigma Chem. Co. Cat. #T-7009) was evaluated as described for chymotrypsin except that the assay was performed in 50 mM Tris, 10 mM CaCl2, pH 7.5 and the substrate was 25 μM Bz-Phe-Val-Arg-AMC (Bachem cat#I-1080).

α-chymotrypsin = target: T5, α-chymotrypsin (Bos taurus, UniProt P00766); assay: Inhibition of α-chymotrypsin (serine protease) activity; details: 10 μM inhibitor; 0.03 mM SuccAla-Ala-Pro-Phe-AMC, pH 7.5; read-out: Chymotrypsin % I @ 10 μM
T5 construct: purchased Sigma Chem. Co. C-3142
Procedure: as §2, §3, §4

T3 sequence (P07711 114-288 limits assumed): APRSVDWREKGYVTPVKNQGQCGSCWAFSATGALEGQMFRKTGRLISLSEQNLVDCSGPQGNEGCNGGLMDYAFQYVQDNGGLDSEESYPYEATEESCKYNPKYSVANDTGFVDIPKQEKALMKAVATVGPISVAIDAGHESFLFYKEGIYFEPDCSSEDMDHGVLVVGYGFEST
T3 sequence (P07711 292-333 limits assumed): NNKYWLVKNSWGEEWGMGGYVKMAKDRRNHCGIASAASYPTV

| Compound | IC50 (Calpain I) | IC50 (cathepsin B) | IC50 (cathepsin L) | inhibition at 10 µM (thrombin) | inhibition at 10 µM (α-chymotrypsin) |
| --- | --- | --- | --- | --- | --- |
| CC(C)CC(CCSc1ccc2ccccc2c1)C(=O)N[C@H](C=O)CC(C)C (some centres unmarked) [Compound 11, 2-Naphthyl--SCH2 CH2 CH(iBu)CO--Leu--H] | 75 nM | 60 nM | 8 nM | 5% | 11% |
| CC(C)CC(CC[S+]([O-])c1ccc2ccccc2c1)C(=O)N[C@H](C=O)CC(C)C (some centres unmarked) [Compound 13, 2-Naphthyl--S(O)--CH2 CH2 CH(iBu)CO--Leu--H] | 30 nM | 60 nM | 3 nM | 2% | 18% |
| CC(C)C[C@H](CCS(=O)(=O)c1ccc2ccccc2c1)C(=O)N[C@H](C=O)CC(C)C [Compound 10, 2-Naphthylsulfonyl--CH2 CH2 CH(iBu)CO--Leu--H] | 50 nM | 150 nM | 3 nM | 1% | 11% |
| CC(C)C[C@@H](CCS(=O)(=O)c1ccc2ccccc2c1)C(=O)N[C@H](C=O)CC(C)C [Compound 9, 2-Naphthylsulfonyl--CH2 CH2 CH(iBu)CO--Leu--H] | 500 nM | 4500 nM | 32 nM | 2% | 12% |
